In brackets after ≈: the same amount, converted by molar mass. Numbered stars: 1 amine (or outer) side, 2 acyl side, 3 side chain; on linkers, the order of the positions; unused ones are H or OH. Bridge positions count the residues as written; N and C are the ends. Square brackets hold non-standard residues; d marks the D form. Peptide text beside a SMILES is read from it. * marks the point of attachment. hTyr(3S-OH,4S-OH,3'-OSO3H) = N[C@H](C(=O)O)[C@H](O)[C@@H](O)c1ccc(O)c(OS(=O)(=O)O)c1; pTerphenylCO(4''-OnC5H11) = CCCCCOc1ccc(-c2ccc(-c3ccc(C(=O)*)cc3)cc2)cc1; Orn(4R-OH,5R-OH) = O=C([C@H](C[C@@H](O)[C@@H](O)N[*:3])N[*:1])[*:2]; hTyr(3S-OH,4S-OH) = N[C@H](C(=O)O)[C@H](O)[C@@H](O)c1ccc(O)cc1; Pro(3S-OH,4S-Me) = C[C@H]1CN[C@H](C(=O)O)[C@H]1O; X1 = CCCCCOc1ccc(-c2cc(-c3ccc(C(=O)*)cc3)no2)cc1; Gln(3R-OH) = NC(=O)C[C@@H](O)[C@H](N)C(=O)O; Hyp = O=C(O)[C@@H]1C[C@@H](O)CN1
Experiments:
Format in all cases: functional
Candida albicans [1] = experiment: Antifungal activity against Candida albicans after 48 hrs
Candida parapsilosis [2] = experiment: Antifungal activity against Candida parapsilosis after 48 hrs; conditions: Lodderomyces parapsilosis
Candida tropicalis [3] = experiment: Antifungal activity against Candida tropicalis after 48 hrs
Pichia kudriavzevii [4] = experiment: Antifungal activity against Candida krusei after 48 hrs
Nakaseomyces glabratus [5] = experiment: Antifungal activity against Candida glabrata after 48 hrs
Candida albicans [6] = experiment: Paradoxical effect in Candida albicans assessed as increase in turbidity at 96 times MIC
Candida parapsilosis [7] = experiment: Paradoxical effect in Candida parapsilosis assessed as increase in turbidity at 96 times MIC
Nakaseomyces glabratus [8] = experiment: Paradoxical effect in Candida glabrata assessed as increase in turbidity at 96 times MIC
Candida tropicalis [9] = experiment: Paradoxical effect in Candida tropicalis assessed as increase in turbidity at 96 times MIC
Pichia kudriavzevii [10] = experiment: Paradoxical effect in Candida krusei assessed as increase in turbidity at 96 times MIC
Candida albicans [11] = experiment: Paradoxical effect in Candida albicans assessed as increase in turbidity at 64 times MIC
Candida parapsilosis [12] = experiment: Paradoxical effect in Candida parapsilosis assessed as increase in turbidity at 64 times MIC
Nakaseomyces glabratus [13] = experiment: Paradoxical effect in Candida glabrata assessed as increase in turbidity at 64 times MIC
Candida tropicalis [14] = experiment: Paradoxical effect in Candida tropicalis assessed as increase in turbidity at 64 times MIC
Pichia kudriavzevii [15] = experiment: Paradoxical effect in Candida krusei assessed as increase in turbidity at 64 times MIC
Candida albicans [16] = experiment: Paradoxical effect in Candida albicans assessed as increase in turbidity at 16 times MIC
Nakaseomyces glabratus [17] = experiment: Paradoxical effect in Candida glabrata assessed as increase in turbidity at 16 times MIC
Candida parapsilosis [18] = experiment: Paradoxical effect in Candida parapsilosis assessed as increase in turbidity at 16 times MIC
Candida tropicalis [19] = experiment: Paradoxical effect in Candida tropicalis assessed as increase in turbidity at 16 times MIC
Pichia kudriavzevii [20] = experiment: Paradoxical effect in Candida krusei assessed as increase in turbidity at 16 times MIC

Compound | MIC50 (Candida albicans [1]) [µg/mL] | MIC90 (Candida albicans [1]) [µg/mL] | MIC50 (Candida parapsilosis [2]) [µg/mL] | MIC90 (Candida parapsilosis [2]) [µg/mL] | MIC50 (Candida tropicalis [3]) [µg/mL] | MIC90 (Candida tropicalis [3]) [µg/mL] | MIC50 (Pichia kudriavzevii [4]) [µg/mL] | MIC90 (Pichia kudriavzevii [4]) [µg/mL] | MIC50 (Nakaseomyces glabratus [5]) [µg/mL] | MIC90 (Nakaseomyces glabratus [5]) [µg/mL] | other results
CCCCCOc1ccc(-c2cc(-c3ccc(C(=O)N[C@H]4C[C@@H](O)[C@@H](O)NC(=O)[C@@H]5[C@@H](O)[C@@H](C)CN5C(=O)[C@H]([C@H](O)CC(N)=O)NC(=O)[C@H]([C@H](O)[C@@H](O)c5ccc(O)c(OS(=O)(=O)O)c5)NC(=O)[C@@H]5C[C@@H](O)CN5C(=O)[C@H]([C@@H](C)O)NC4=O)cc3)no2)cc1 [MICAFUNGIN] (X1-[Orn(4R-OH,5R-OH)]T[Hyp][hTyr(3S-OH,4S-OH,3'-OSO3H)][Gln(3R-OH)][Pro(3S-OH,4S-Me)]; lactam 1-C) | 0.25 (≈ 0.197 µM) | 0.25 (≈ 0.197 µM) | 1 (≈ 0.787 µM) | 2 (≈ 1.57 µM) | 0.06 (≈ 0.0472 µM) | 0.06 (≈ 0.0472 µM) | 0.5 (≈ 0.394 µM) | 0.5 (≈ 0.394 µM) | 0.06 (≈ 0.0472 µM) | 0.125 (≈ 0.0984 µM) | Activity (Candida albicans [6]): 0%; Activity (Candida parapsilosis [7]): 0%; Activity (Nakaseomyces glabratus [8]): 0%; Activity (Candida tropicalis [9]): 70%; Activity (Pichia kudriavzevii [10]): 60%
CC[C@H](C)C[C@H](C)CCCCCCCCC(=O)N[C@H]1C[C@@H](O)[C@@H](NCCN)NC(=O)[C@@H]2[C@@H](O)CCN2C(=O)[C@H]([C@H](O)CCN)NC(=O)[C@H]([C@H](O)[C@@H](O)c2ccc(O)cc2)NC(=O)[C@@H]2C[C@@H](O)CN2C(=O)[C@H]([C@@H](C)O)NC1=O [CASPOFUNGIN] | 0.125 (≈ 0.114 µM) | 0.25 (≈ 0.229 µM) | 0.5 (≈ 0.457 µM) | 1 (≈ 0.915 µM) | 1 (≈ 0.915 µM) | 1 (≈ 0.915 µM) | 0.06 (≈ 0.0549 µM) | 1 (≈ 0.915 µM) | 0.25 (≈ 0.229 µM) | 0.5 (≈ 0.457 µM) | Activity (Candida albicans [11]): 60%; Activity (Candida parapsilosis [12]): 90%; Activity (Nakaseomyces glabratus [13]): 0%; Activity (Candida tropicalis [14]): 40%; Activity (Pichia kudriavzevii [15]): 10%
CCCCCOc1ccc(-c2ccc(-c3ccc(C(=O)N[C@H]4C[C@@H](O)[C@@H](O)NC(=O)[C@@H]5[C@@H](O)[C@@H](C)CN5C(=O)[C@H]([C@@H](C)O)NC(=O)[C@H]([C@H](O)[C@@H](O)c5ccc(O)cc5)NC(=O)[C@@H]5C[C@@H](O)CN5C(=O)[C@H]([C@@H](C)O)NC4=O)cc3)cc2)cc1 [ANIDULAFUNGIN] ({pTerphenylCO(4''-OnC5H11)}-[Orn(4R-OH,5R-OH)]T[Hyp][hTyr(3S-OH,4S-OH)]T[Pro(3S-OH,4S-Me)]; lactam 1-C) | 0.5 (≈ 0.438 µM) | 1 (≈ 0.877 µM) | 0.5 (≈ 0.438 µM) | 0.5 (≈ 0.438 µM) | 0.5 (≈ 0.438 µM) | 1 (≈ 0.877 µM) | 0.25 (≈ 0.219 µM) | 0.25 (≈ 0.219 µM) | 0.5 (≈ 0.438 µM) | 0.5 (≈ 0.438 µM) | Activity (Candida albicans [16]): 40%; Activity (Nakaseomyces glabratus [17]): 0%; Activity (Candida parapsilosis [18]): 0%; Activity (Candida tropicalis [19]): 20%; Activity (Pichia kudriavzevii [20]): 0%
